Experiment [1] addresses Non-receptor tyrosine-protein kinase TYK2 (Homo sapiens, UniProt P29597). Briefly: TYK2 (TYK2/JAK2 PSTAT4 T-BLAST) Alpha Screen Assay. As for the experimental part:
IL-12 is known to transduce its signal through IL-12 receptor via Jak2 and/or Tyk2. For that reason, the activity against Tyk2/Jak2 was measured by determining the inhibition of IL-12 induced phosphorylation of STAT4 in T-blast cells. […] See, e.g., Sohn et al., J. Immunology (2013) 2205-2216.

The target in experiment [2] is Tyrosine-protein kinase JAK1 (Homo sapiens, UniProt P23458). Briefly: JAK1 (PSTAT3 TF1) Alpha Screen Assay. As for the experimental part: IL-6 is known to transduce its signal through IL-6 receptor via Jak1. Activity against Jak was therefore measured by determining inhibition of IL-6 induced phosphorylation of STAT3 in TF1 cells. From these tests, the EC50 (effective concentration for 50% maximal response) values were determined in 1 μM for the test compounds.

Here are results for 54 compounds from BindingDB's records for patent US20190276450 (Abbvie, 2019).

For orientation: EC50 means the concentration giving half of the maximal effect.

Chain of Tyrosine-protein kinase JAK1 (P23458 whole entry): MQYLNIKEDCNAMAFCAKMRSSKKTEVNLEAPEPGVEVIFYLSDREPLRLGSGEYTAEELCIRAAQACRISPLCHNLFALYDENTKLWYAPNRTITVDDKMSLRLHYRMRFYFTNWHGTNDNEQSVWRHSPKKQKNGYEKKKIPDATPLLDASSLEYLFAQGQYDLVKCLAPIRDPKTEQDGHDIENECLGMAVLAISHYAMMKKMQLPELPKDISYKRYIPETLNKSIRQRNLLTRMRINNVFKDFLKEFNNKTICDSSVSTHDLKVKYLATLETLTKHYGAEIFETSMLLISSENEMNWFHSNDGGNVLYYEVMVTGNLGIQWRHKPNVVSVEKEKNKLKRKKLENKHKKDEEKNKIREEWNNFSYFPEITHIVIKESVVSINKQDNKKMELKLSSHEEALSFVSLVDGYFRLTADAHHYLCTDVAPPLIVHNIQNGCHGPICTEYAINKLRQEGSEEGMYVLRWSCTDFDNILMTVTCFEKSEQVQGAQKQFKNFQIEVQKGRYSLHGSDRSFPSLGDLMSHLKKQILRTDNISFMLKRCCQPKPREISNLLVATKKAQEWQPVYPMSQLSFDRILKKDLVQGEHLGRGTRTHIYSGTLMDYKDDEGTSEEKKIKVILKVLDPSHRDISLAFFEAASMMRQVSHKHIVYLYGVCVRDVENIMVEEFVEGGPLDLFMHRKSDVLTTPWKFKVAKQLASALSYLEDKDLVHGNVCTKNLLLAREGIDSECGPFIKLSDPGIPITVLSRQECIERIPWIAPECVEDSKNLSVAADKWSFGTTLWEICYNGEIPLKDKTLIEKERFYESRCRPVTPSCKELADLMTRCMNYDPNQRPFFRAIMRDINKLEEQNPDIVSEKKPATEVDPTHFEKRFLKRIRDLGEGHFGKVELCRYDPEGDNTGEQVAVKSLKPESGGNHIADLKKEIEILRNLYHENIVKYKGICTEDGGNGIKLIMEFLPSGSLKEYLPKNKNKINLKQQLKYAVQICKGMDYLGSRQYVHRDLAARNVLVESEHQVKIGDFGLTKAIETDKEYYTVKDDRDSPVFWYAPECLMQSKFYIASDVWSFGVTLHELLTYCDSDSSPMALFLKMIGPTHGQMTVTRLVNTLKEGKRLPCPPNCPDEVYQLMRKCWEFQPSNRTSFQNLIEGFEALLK
Chain of Non-receptor tyrosine-protein kinase TYK2 (P29597 whole entry): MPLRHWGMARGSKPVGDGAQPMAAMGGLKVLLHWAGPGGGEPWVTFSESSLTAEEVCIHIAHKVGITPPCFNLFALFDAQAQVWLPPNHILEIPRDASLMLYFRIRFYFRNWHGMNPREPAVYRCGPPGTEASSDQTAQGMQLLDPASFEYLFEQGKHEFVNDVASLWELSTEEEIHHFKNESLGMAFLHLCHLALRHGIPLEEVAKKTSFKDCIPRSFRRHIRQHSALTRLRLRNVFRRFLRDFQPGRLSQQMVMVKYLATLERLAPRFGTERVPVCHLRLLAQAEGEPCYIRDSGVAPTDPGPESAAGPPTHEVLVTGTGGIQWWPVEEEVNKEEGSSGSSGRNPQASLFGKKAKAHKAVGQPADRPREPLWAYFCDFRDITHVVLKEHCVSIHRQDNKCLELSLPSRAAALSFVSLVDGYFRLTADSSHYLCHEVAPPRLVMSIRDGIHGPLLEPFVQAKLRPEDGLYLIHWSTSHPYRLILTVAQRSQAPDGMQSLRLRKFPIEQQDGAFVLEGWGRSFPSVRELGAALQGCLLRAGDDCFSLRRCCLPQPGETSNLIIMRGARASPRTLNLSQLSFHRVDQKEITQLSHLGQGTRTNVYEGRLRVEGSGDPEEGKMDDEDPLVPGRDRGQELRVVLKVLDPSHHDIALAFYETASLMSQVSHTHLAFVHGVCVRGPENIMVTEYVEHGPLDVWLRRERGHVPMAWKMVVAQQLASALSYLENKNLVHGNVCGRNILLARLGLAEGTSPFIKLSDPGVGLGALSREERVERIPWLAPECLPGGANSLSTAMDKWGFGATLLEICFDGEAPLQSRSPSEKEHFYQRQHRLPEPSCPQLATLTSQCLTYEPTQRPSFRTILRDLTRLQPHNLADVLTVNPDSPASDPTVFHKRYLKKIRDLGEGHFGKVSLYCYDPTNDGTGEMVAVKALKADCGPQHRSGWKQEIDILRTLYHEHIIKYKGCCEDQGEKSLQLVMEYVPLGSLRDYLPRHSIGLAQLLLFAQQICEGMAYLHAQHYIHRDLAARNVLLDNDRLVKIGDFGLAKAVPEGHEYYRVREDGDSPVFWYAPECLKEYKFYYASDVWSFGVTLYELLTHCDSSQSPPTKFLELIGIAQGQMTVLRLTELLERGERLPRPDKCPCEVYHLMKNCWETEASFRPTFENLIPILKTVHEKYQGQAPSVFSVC

On to `CO[C@]1(c2cc(C)cc(-c3cn(C)c4cnc(NC(N)=O)cc34)n2)CCOC1` [US20190276450, Example 1b.3], for which the results for the EC50 in experiment [1] and in experiment [2] were 445 nM and 4.46 µM, respectively.
Regarding `CO[C@@]1(c2cccc(-c3cn(C4(C)COC4)c4cnc(NC(N)=O)cc34)n2)CCOC1` [US20190276450, Example 19], in experiment [1], the EC50 worked out at 198 nM.
Regarding `CO[C@@]1(c2cc(C(F)F)cc(-c3cn(C4COC4)c4cnc(NC(N)=O)cc34)n2)CCOC1` [US20190276450, Example 12b.4], the EC50 in experiment [1] stood at 45 nM; in experiment [2], 40 µM.
Taken in the same sequence, the figures for `COc1cc(-c2cn([C@@H]3CCOC3)c3cnc(NC(C)=O)cc23)nc([C@]2(OC)CCOC2)c1` [US20190276450, Example 5.2] were 156 nM and > 100 µM.
Consider `CO[C@@]1(c2cc(O[C@H]3C[C@@H](O)C3)cc(-c3cn(C)c4cnc(NC(C)=O)cc34)n2)CCOC1` [US20190276450, Example 11.2], for which the response in experiment [1] was half-maximal at 124 nM (EC50).
On the same count and under the same terms, in the case of `COc1cc(-c2cn([C@@H]3CCOC3)c3cnc(NC(C)=O)cc23)nc([C@@]2(OC)CCOC2)c1` [US20190276450, Example 5.3] it was 561 nM; in that of `CO[C@@]1(c2cc(C#N)cc(-c3cn([C@H]4CC4(F)F)c4cnc(NC(N)=O)cc34)n2)CCOC1` [US20190276450, Example 12a.2], 578 nM; in that of `CO[C@@]1(c2cc(C(F)F)cc(-c3cn([C@H]4C[C@@H](C#N)C4)c4cnc(NC(C)=O)cc34)n2)CCOC1` [US20190276450, Example 17.3], 8 nM.
`CO[C@@]1(c2cc(C(F)F)cc(-c3cn([C@H]4CCOC4)c4cnc(NC(N)=O)cc34)n2)CCOC1` [US20190276450, Example 12b.3]: the results for the EC50 in experiment [1] and in experiment [2] were 56 nM and 68 µM, respectively.
Take `COc1cc(-c2cn(C3COC3)c3cnc(NC(C)=O)cc23)nc([C@@]2(OC)CCOC2)c1` [US20190276450, Example 4.4]: the EC50 in experiment [1] came to 353 nM.
On to `COc1cc(-c2cn(C3COC3)c3cnc(NC(C)=O)cc23)nc([C@]2(OC)CCOC2)c1` [US20190276450, Example 5], for which the EC50 in experiment [1] was 111 nM; in experiment [2], > 100 µM.
As for `CNC(=O)Nc1cc2c(-c3cccc([C@]4(OC)CCOC4)n3)cn(C)c2cn1` [US20190276450, Example 1a.2], the EC50 in experiment [1] was found to be 288 nM.
On the same count and under the same terms, in the case of `CO[C@]1(c2cccc(-c3cn(C)c4cnc(NC(N)=O)cc34)n2)CCOC1` [US20190276450, Example 1a] it was 468 nM.
On the same count and under the same terms, the figure for `CC[C@]1(c2cccc(-c3cn(C)c4cnc(NC(N)=O)cc34)n2)CCOC1` [US20190276450, Example 3.3] is 388 nM; for `CO[C@@]1(c2cccc(-c3cn([C@H]4CC4(F)F)c4cnc(NC(N)=O)cc34)n2)CCOC1` [US20190276450, Example 1.3] it is 2030 nM.
In the case of `CO[C@@]1(c2cc(C#N)cc(-c3cn([C@@H]4CC4(F)F)c4cnc(NC(N)=O)cc34)n2)CCOC1` [US20190276450, Example 12a.3], the values for the half-maximal effective concentration (EC50) in experiment [1] and in experiment [2] were 66 nM and > 100 µM, respectively.
Take `CO[C@@]1(c2cc(OCC#N)cc(-c3cn(C)c4cnc(NC(C)=O)cc34)n2)CCOC1` [US20190276450, Example 6.3]: in experiment [1], a half-maximal response (EC50) required 352 nM.
On to `Cn1cc(-c2cccc(C3(O)COC3)n2)c2cc(NC(N)=O)ncc21` [US20190276450, Example 14], for which the EC50 is 563 nM in experiment [1] and 11.1 µM in experiment [2].
Regarding `CO[C@@]1(c2cc(C)cc(-c3cn([C@H]4C[C@H](C#N)C4)c4cnc(NC(C)=O)cc34)n2)CCOC1` [US20190276450, Example 17.4], the EC50 in experiment [1] amounted to 127 nM; in experiment [2], 20 µM.
`COCc1cc(-c2cn(C)c3cnc(NC(C)=O)cc23)nc([C@@]2(OC)CCOC2)c1` [US20190276450, Example 2.4] gave an EC50 in experiment [1] of 699 nM.
With `CO[C@]1(c2cc(OCC3COC3)cc(-c3cn(C)c4cnc(NC(C)=O)cc34)n2)CCOC1` [US20190276450, Example 6.2], the results for the EC50 in experiment [1] and in experiment [2] were 103 nM and 5.2 µM, respectively.
`CO[C@]1(c2cc(O[C@H]3C[C@H](O)C3)cc(-c3cn(C)c4cnc(NC(C)=O)cc34)n2)CCOC1` [US20190276450, Example 11a] returned an EC50 in experiment [1] of 496 nM.
On the same count and under the same terms, in the case of `CC[C@]1(c2cccc(-c3cn(C)c4cnc(NC(C)=O)cc34)n2)CCOC1` [US20190276450, Example 2.3a] it was 2220 nM.
Compound `CO[C@]1(c2cc(C(F)F)cc(-c3cn(C4COC4)c4cnc(NC(C)=O)cc34)n2)CCOC1` [US20190276450, Example 4.2] displayed an EC50 in experiment [1] of 616 nM. This EC50 lies about 3.6-fold lower than the previous one.
As for `CO[C@@]1(c2cc(C(F)F)cc(-c3cn(C)c4cnc(NC(N)=O)cc34)n2)CCOC1` [US20190276450, Example 12.5], the EC50 in experiment [1] was found to be 22 nM; in experiment [2], 20 µM.
`CO[C@@]1(c2cncc(-c3cn(C)c4cnc(NC(C)=O)cc34)n2)CCOC1` [US20190276450, Example 2.10] returned an EC50 in experiment [1] of 368 nM.
For the compound `COc1cc(-c2cn(C)c3cnc(NC(C)=O)cc23)nc([C@@]2(CO)CCOC2)c1` [US20190276450, Example 22.7], the EC50 in experiment [1] turned out to be 3100 nM.
On the same count and under the same terms, in the case of `COCCOc1cc(-c2cn(C)c3cnc(NC(C)=O)cc23)nc([C@@]2(CO)CCOC2)c1` [US20190276450, Example 22.9] it was 1320 nM; in that of `CO[C@@]1(c2cccc(-c3cn(C)c4cnc(NC(C)=O)cc34)n2)CCOC1` [US20190276450, Example 16], 310 nM.
As to `COc1cc(-c2cn(C)c3cnc(NC(N)=O)cc23)nc([C@@]2(OC)CCOC2)c1` [US20190276450, Example 12.7], the EC50 in experiment [1] amounted to 185 nM; in experiment [2] it was 15 µM.
Consider `CC[C@@]1(c2cccc(-c3cn(C)c4cnc(NC(C)=O)cc34)n2)CCOC1` [US20190276450, Example 2.3], for which the results for the EC50 in experiment [1] and in experiment [2] were 96 nM and 18 µM, respectively.
Compound `CC(=O)Nc1cc2c(-c3cccc([C@@]4(CO)CCOC4)n3)cn(C)c2cn1` [US20190276450, Example 21a] returned an EC50 in experiment [1] of 1310 nM.
`COc1cc(-c2cn(C)c3cnc(NC(C)=O)cc23)nc([C@@]2(OC)CCOC2)c1` [US20190276450, Example 20a] displayed an EC50 in experiment [1] of 906 nM.
Same read-out and setting: the figure for `COCc1cc(-c2nn(C)c3cnc(NC(C)=O)cc23)nc([C@]2(OC)CCOC2)c1` [US20190276450, Example 23] is 330 nM.
On the same count and under the same terms, the figure for `CO[C@]1(c2cc(C#N)cc(-c3cn(C)c4cnc(NC(C)=O)cc34)n2)CCOC1` [US20190276450, Example 2.5] is 694 nM.
The same measure, in the same setting: the figure for `CO[C@@]1(c2cccc(-c3c[nH]c4cnc(NC(C)=O)cc34)n2)CCOC1` [US20190276450, Example 17-NH] is 1520 nM; for `CO[C@]1(c2cc(C#N)cc(-c3cn(C)c4cnc(NC(N)=O)cc34)n2)CCOC1` [US20190276450, Example 12.2] it is 551 nM; for `CO[C@]1(c2cc(C#N)cc(-c3cn([C@@H]4CC4(F)F)c4cnc(NC(C)=O)cc34)n2)CCOC1` [US20190276450, Example 2a.2] it is 749 nM.
Turning to `CO[C@]1(c2cc(C(F)F)cc(-c3cn(C)c4cnc(NC(C)=O)cc34)n2)CCOC1` [US20190276450, Example 2.7], in experiment [1], it took 254 nM to reach a half-maximal effect (EC50).
Same read-out and setting: the figure for `CO[C@]1(c2cccc(-c3cn(C)c4cnc(NC(C)=O)cc34)n2)CCOC1` [US20190276450, Example 16a] is 1590 nM; for `CO[C@@]1(c2cc(C#N)cc(-c3cn([C@H]4CC4(F)F)c4cnc(NC(C)=O)cc34)n2)CCOC1` [US20190276450, Example 2a.5] it is 1590 nM.
Same read-out and setting: the figure for `CO[C@@]1(c2cccc(-c3cn([C@H]4C[C@@H](C#N)C4)c4cnc(NC(C)=O)cc34)n2)CCOC1` [US20190276450, Example 17a] is 477 nM.
Compound `COC1(c2cccc(-c3c[nH]c4cnc(NC(C)=O)cc34)n2)CCOC1` (stereo unspecified) [US20190276450, Example 16-NH] gave an EC50 in experiment [1] of 3140 nM.
Still for that read-out and setting: in the case of `COc1cc(-c2cn(C)c3cnc(NC(C)=O)cc23)nc(C2(O)COC2)c1` [US20190276450, Example 14.2] it was 673 nM.
On the same count and under the same terms, the figure for `COCc1cc(-c2cn(C)c3cnc(NC(N)=O)cc23)nc([C@@]2(OC)CCOC2)c1` [US20190276450, Example 12.4] is 319 nM; for `CO[C@@]1(c2cc(C#N)cc(-c3cn(C)c4cnc(NC(C)=O)cc34)n2)CCOC1` [US20190276450, Example 2.6] it is 268 nM; for `COCc1cc(-c2c[nH]c3cnc(NC(C)=O)cc23)nc([C@]2(OC)CCOC2)c1` [US20190276450, Example 2-NH] it is 310 nM.
Same read-out and setting: in the case of `Cn1cc(-c2cccc(C3COC3)n2)c2cc(NC(N)=O)ncc21` [US20190276450, Example 13] it was 492 nM.
`NC(=O)Nc1cc2c(-c3cccc(C4(O)COC4)n3)cn([C@H]3CCOC3)c2cn1` [US20190276450, Example 15.2] yielded an EC50 in experiment [1] of 1840 nM.
For the compound `CO[C@@]1(c2cccc(-c3cn(C4(C)COC4)c4cnc(NC(C)=O)cc34)n2)CCOC1` [US20190276450, Example 18], it took 494 nM to reach a half-maximal effect in experiment [1] (EC50). This EC50 is about 3.7-fold lower than that of the compound before.
Same read-out and setting: the figure for `CO[C@]1(c2cc(C#N)cc(-c3cn([C@H]4CC4(F)F)c4cnc(NC(C)=O)cc34)n2)CCOC1` [US20190276450, Example 2a.4] is 2360 nM; for `CO[C@@]1(c2cccc(-c3cn(C4(F)COC4)c4cnc(NC(C)=O)cc34)n2)CCOC1` [US20190276450, Example 18a] it is 537 nM; for `CC(=O)Nc1cc2c(-c3cc(OC(C)C)cc(C4(O)COC4)n3)cn(C)c2cn1` [US20190276450, Example 14.3] it is 339 nM.
As to `CO[C@]1(c2cncc(-c3cn(C)c4cnc(NC(C)=O)cc34)n2)CCOC1` [US20190276450, Example 2.9], a half-maximal effect in experiment [1] (EC50) was put at 716 nM.
